Results on 18 compounds are retold here after patent US20220289753A1, “SHP2 INHIBITORS” (IRBM S.P.A., priority 2019, published 2022).

SMILES strings stand for the structures. Where two headings read alike, the source gives them in different places.

Assay [1] has as its target T1, SHP-2 enzyme (Met1-Leu525) (Homo sapiens, UniProt Q06124).
T1 construct: synthetized by Origene, Met1-Leu525, cat #TP750155; purchased Origene TP750155
T1 sequence (Q06124 1-525): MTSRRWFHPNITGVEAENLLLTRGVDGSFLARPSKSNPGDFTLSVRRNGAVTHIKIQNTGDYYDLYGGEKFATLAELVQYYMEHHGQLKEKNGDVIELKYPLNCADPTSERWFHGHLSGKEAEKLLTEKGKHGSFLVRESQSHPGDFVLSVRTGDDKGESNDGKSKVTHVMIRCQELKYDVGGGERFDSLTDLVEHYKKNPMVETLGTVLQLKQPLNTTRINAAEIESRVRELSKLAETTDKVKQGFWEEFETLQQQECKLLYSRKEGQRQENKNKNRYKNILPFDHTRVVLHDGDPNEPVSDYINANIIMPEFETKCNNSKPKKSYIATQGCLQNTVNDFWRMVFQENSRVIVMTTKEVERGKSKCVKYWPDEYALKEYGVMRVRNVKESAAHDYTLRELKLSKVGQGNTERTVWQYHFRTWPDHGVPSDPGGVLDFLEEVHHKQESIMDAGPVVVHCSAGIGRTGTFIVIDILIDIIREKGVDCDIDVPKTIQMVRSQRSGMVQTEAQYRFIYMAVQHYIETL
In words: SHP2 inhibition enzymatic assay (DiFMUP substrate, IRS1 peptide activation). It is filed as biochemical. Conditions: SHP2 wt; activated by 500 nM IRS1 peptide; 75 μM DiFMUP substrate. In short, it runs like this:
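SHP-2 (Met1-Leu525, 0.5 nM final) preincubated 30 min with compounds and IRS1 activating peptide in HEPES pH 7.2 buffer with NaCl, KCl, EDTA, tween-20, 5 mM DTT. DiFMUP then added for 30 min at room temperature and fluorescence read. IC50 from four-parameter logistic fit of % inhibition.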

For assay [2], the system named is ERK phosphorylation in KYSE-520 cells. In words: Phospho-ERK cellular assay (Advanced phospho-ERK1/2 (Thr202/Tyr204) TR-FRET kit). It is filed as cell-based. The following applies: KYSE-520 cells, 2 h at 37° C., TR-FRET, read-out: pERK IC50. The method in brief: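 KYSE-520 cells were treated 2 h at 37° C with serially diluted compounds, then lysed. Phospho-ERK1/2 (Thr202/Tyr204) was detected by TR-FRET after overnight antibody incubation at room temperature. IC50 came from a four-parameter logistic fit; lower signal reflects greater SHP2 inhibition.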
For orientation: In TR-FRET formats the signal depends on donor and acceptor labels being close together.

`C[C@@H]1OCC2(CCN(c3cc4nc(Sc5ccnc(N)c5Cl)cnc4[nH]3)CC2)[C@@H]1N` [Example 268, (3S,4S)-8-(2-((2-amino-3-chloropyridin-4-yl)thio)-5H-pyrrolo[2,3-b]pyrazin-6-yl)-3-methyl-2-oxa-8-azaspiro[4.5]decan-4-amine]: the IC50 in assay [1] is under 0.5 µM; in assay [2] (Homo sapiens, KYSE-520, 2 h) it was under 1 µM.

As to `CC1(N)CCN(c2nc3ncc(Sc4cccnc4C(F)(F)F)nc3[nH]2)CC1` [Example 1, 4-methyl-1-(6-((2-(trifluoromethyl)pyridin-3-yl)thio)-1H-imidazo[4,5-b]pyrazin-2-yl)piperidin-4-amine], the half-maximal inhibitory concentration (IC50) in assay [1] was under 0.5 µM; in assay [2] (Homo sapiens, KYSE-520, 2 h), 1 to 5 µM.

Regarding `CCNc1nccc(Sc2cnc3[nH]c(N4CCC5(CC4)Cc4ccccc4[C@H]5N)nc3n2)c1Cl` [Example 246, (S)-1′-(5-((3-chloro-2-(ethylamino)pyridin-4-yl)thio)-1H-imidazo[4,5-b]pyrazin-2-yl)-1,3-dihydrospiro[indene-2,4′-piperidin]-1-amine], the IC50 in assay [1] is under 0.5 µM; in assay [2] (Homo sapiens, KYSE-520, 2 h), over 5 µM.

In the case of `Nc1cc(Sc2cnc3[nH]c(N4CCC5(CC4)Cc4ccccc4[C@H]5N)nc3n2)c(Cl)c(Cl)n1` [Example 266, (S)-1′-(5-((6-amino-2,3-dichloropyridin-4-yl)thio)-1H-imidazo[4,5-b]pyrazin-2-yl)-1,3-dihydrospiro[indene-2,4′-piperidin]-1-amine], the IC50 in assay [1] was under 0.5 µM; in assay [2] (Homo sapiens, KYSE-520, 2 h), over 5 µM.

Regarding `Cn1cc2c(n1)CC1(CCN(c3nc4nc(Sc5ccnc(N)c5Cl)cnc4[nH]3)CC1)C2N` (stereo not shown) [Example 233, 1′-(5-((2-amino-3-chloropyridin-4-yl)thio)-1H-imidazo[4,5-b]pyrazin-2-yl)-2-methyl-2,6-dihydro-4H-spiro[cyclopenta[c]pyrazole-5,4′-piperidin]-4-amine], the half-maximal inhibitory concentration (IC50) in assay [1] was under 0.5 µM; in assay [2] (Homo sapiens, KYSE-520, 2 h) it was under 1 µM.

Regarding `N[C@@H]1c2cc(F)ccc2CC12CCN(c1nc3ncc(Sc4cccc5c4OCCN5)nc3[nH]1)CC2` [Example 184, (S)-1′-(6-((3,4-dihydro-2H-benzo[b][1,4]oxazin-8-yl)thio)-1H-imidazo[4,5-b]pyrazin-2-yl)-6-fluoro-1,3-dihydrospiro[indene-2,4′-piperidin]-1-amine], the concentration for half-maximal inhibition (IC50) in assay [1] is under 0.5 µM; in assay [2] (Homo sapiens, KYSE-520, 2 h), under 1 µM.

As for `CCOc1cnccc1Sc1cnc2[nH]c(N3CCC4(CC3)Cc3ccccc3[C@H]4N)nc2n1` [Example 200, (S)-1′-(5-((3-ethoxypyridin-4-yl)thio)-1H-imidazo[4,5-b]pyrazin-2-yl)-1,3-dihydrospiro[indene-2,4′-piperidin]-1-amine], the half-maximal inhibitory concentration (IC50) in assay [1] is under 0.5 µM; in assay [2] (Homo sapiens, KYSE-520, 2 h), under 1 µM.

On to `CN(C)c1nccc(Sc2cnc3[nH]c(N4CCC5(CC4)Cc4ncccc4[C@H]5N)nc3n2)c1Cl` [Example 154, (S)-1′-(5-((3-chloro-2-(dimethylamino)pyridin-4-yl)thio)-1H-imidazo[4,5-b]pyrazin-2-yl)-5,7-dihydrospiro[cyclopenta[b]pyridine-6,4′-piperidin]-5-amine], for which the IC50 in assay [1] is under 0.5 µM; in assay [2] (Homo sapiens, KYSE-520, 2 h), over 5 µM.

As to `Cc1nc2nc(N3CCC(C)(N)CC3)[nH]c2nc1Sc1cccc(Cl)c1Cl` [Example 133, 1-(5-((2,3-dichlorophenyl)thio)-6-methyl-1H-imidazo[4,5-b]pyrazin-2-yl)-4-methylpiperidin-4-amine], the IC50 is under 0.5 µM in assay [1] and over 5 µM in assay [2] (Homo sapiens, KYSE-520, 2 h).

`CC(=O)Nc1nccc(Sc2cnc3[nH]c(N4CCC5(CC4)Cc4ccccc4[C@H]5N)nc3n2)c1Cl` [Example 147, (S)-N-(4-((2-(1-amino-1,3-dihydrospiro[indene-2,4′-piperidin]-1′-yl)-1H-imidazo[4,5-b]pyrazin-5-yl)thio)-3-chloropyridin-2-yl)acetamide]: the IC50 is under 0.5 µM in assay [1] and under 1 µM in assay [2] (Homo sapiens, KYSE-520, 2 h).

In the case of `COC(=O)c1c(N2CCC3(CC2)Cc2ccccc2[C@H]3N)[nH]c2ncc(Sc3cccc(Cl)c3Cl)nc12` [Example 253, methyl (S)-6-(1-amino-1,3-dihydrospiro[indene-2,4′-piperidin]-1′-yl)-2-((2,3-dichlorophenyl)thio)-5H-pyrrolo[2,3-b]pyrazine-7-carboxylate], the IC50 in assay [1] was under 0.5 µM; in assay [2] (Homo sapiens, KYSE-520, 2 h) it was under 1 µM.

On to `Cc1nc(COc2cnccc2Sc2cnc3[nH]c(N4CCC5(CC4)Cc4ccccc4[C@H]5N)nc3n2)co1` [Example 227, (S)-1′-(5-((3-((2-methyloxazol-4-yl)methoxy)pyridin-4-yl)thio)-1H-imidazo[4,5-b]pyrazin-2-yl)-1,3-dihydrospiro[indene-2,4′-piperidin]-1-amine], for which the IC50 in assay [1] is under 0.5 µM; in assay [2] (Homo sapiens, KYSE-520, 2 h), over 5 µM.

On to `CNc1nccc(Sc2cnc3[nH]c(N4CCC5(CC4)Cc4ccccc4[C@H]5N[S@+]([O-])C(C)(C)C)nc3n2)c1Cl` [Example 209, (R)-N-((S)-1′-(5-((3-chloro-2-(methylamino)pyridin-4-yl)thio)-1H-imidazo[4,5-b]pyrazin-2-yl)-1,3-dihydrospiro[indene-2,4′-piperidin]-1-yl)-2-methylpropane-2-sulfinamide], for which the half-inhibitory concentration (IC50) is under 0.5 µM in assay [1]; 1 to 5 µM in assay [2] (Homo sapiens, KYSE-520, 2 h); under 1 µM in assay [2].

On to `CNC(=O)c1ncccc1Sc1cnc2[nH]c(N3CCC4(CC3)Cc3ccccc3[C@H]4N)nc2n1` [Example 224, (S)-3-((2-(1-amino-1,3-dihydrospiro[indene-2,4′-piperidin]-1′-yl)-1H-imidazo[4,5-b]pyrazin-5-yl)thio)-N-methylpicolinamide], for which the IC50 is under 0.5 µM in assay [1] and over 5 µM in assay [2] (Homo sapiens, KYSE-520, 2 h).

Consider `N[C@@H]1c2ccccc2CC12CCN(c1nc3nc(Sc4cccc(Cl)c4Cl)c(Cl)nc3[nH]1)CC2` [Example 259, (S)-1′-(6-chloro-5-((2,3-dichlorophenyl)thio)-1H-imidazo[4,5-b]pyrazin-2-yl)-1,3-dihydrospiro[indene-2,4′-piperidin]-1-amine], for which the IC50 in assay [1] was under 0.5 µM; in assay [2] (Homo sapiens, KYSE-520, 2 h), under 1 µM.

Take `Nc1nccc(Sc2cnc3[nH]c(N4CCC5(CC4)Cc4ccc(Br)cc4[C@H]5N)nc3n2)c1Cl` [Example 219, (S)-1′-(5-((2-amino-3-chloropyridin-4-yl)thio)-1H-imidazo[4,5-b]pyrazin-2-yl)-6-bromo-1,3-dihydrospiro[indene-2,4′-piperidin]-1-amine]: the IC50 in assay [1] is under 0.5 µM; in assay [2] (Homo sapiens, KYSE-520, 2 h) it was under 1 µM.

For `Nc1nccc(Sc2cnc3[nH]c(N4CCC5(CC4)Cc4ccccc4[C@H]5N)cc3n2)c1Cl` [Example 265, (S)-1′-(2-((2-amino-3-chloropyridin-4-yl)thio)-5H-pyrrolo[2,3-b]pyrazin-6-yl)-1,3-dihydrospiro[indene-2,4′-piperidin]-1-amine], the concentration for half-maximal inhibition (IC50) in assay [1] was under 0.5 µM; in assay [2] (Homo sapiens, KYSE-520, 2 h), 1 to 5 µM.

As to `CNc1nccc(Sc2cnc3[nH]c(N4CCC5(CC4)Cc4ncccc4[C@H]5N)nc3n2)c1Cl` [Example 146, (S)-1′-(5-((3-chloro-2-(methylamino)pyridin-4-yl)thio)-1H-imidazo[4,5-b]pyrazin-2-yl)-5,7-dihydrospiro[cyclopenta[b]pyridine-6,4′-piperidin]-5-amine], the half-inhibitory concentration (IC50) in assay [1] is under 0.5 µM; in assay [2] (Homo sapiens, KYSE-520, 2 h) it was under 1 µM.

What is called IC50 is the concentration that gives 50% inhibition.
